{"source": "patent US20250115943A1", "about": "“SYSTEM AND METHOD FOR ANTIMICROBIAL SUSCEPTIBILITY TESTING” (priority 2023, published 2025)", "key": {"[1]": {"test_system": "E. coli ATCC 25922", "test": "CytoSPAR BLAST antibiotic susceptibility test", "type": "cell-based", "conditions": "for MIC: Escherichia coli; for S, I, R: susceptible, intermediate, resistant category", "text": "(§1) The disclosed technology, which is referred to as the CytoSPAR BLAST (Bacteria Labeling Antibiotic Susceptibility Test) system, is used to quantitatively assess bacterial minimal inhibitory concentration of antibiotics for in vitro susceptibility testing. Used as an aid in diagnosis for clinicians in determining potential treatment options for patients suspected of having a microbial infection, BLAST is intended to determine susceptibility of microorganisms to the listed antibiotics (or other antimicrobials) according to manufacturer's standards. The system is intended for use with clinical isolates from liquid culture and colonies grown on agar (solid medium) or directly from urine samples. Certain implementations of BLAST determine antibiotic susceptibility for a wide range of bacteria obtained from various types of patient samples, including samples from individuals suffering from urinary tract infections. The disclosed technology includes a high-throughput assay that directly detects bacterial susceptibility to a library of frequently used antibiotics and covers both Gram-negative and Gram-positive bacteria.\n(§2) The test incorporates a non-canonical amino acid (ncAA) into newly produced proteins. The incorporated ncAA includes a reactive group which allows a specific modification and detection of the living bacteria. The assay involves bacterial incorporation of the ncAA, a chemical reaction between a reactive group and a fluorophore-tagged ligand, and detection of the newly fluorescent-tagged bacteria using a fluorescent plate reader or functionally similar device. The ncAA is added to bacterial growth media and is incorporated into newly synthesized bacterial proteins. The reactive groups on the ncAA are not naturally found in bacteria and act as a specific reactive group for bacteria undergoing active protein synthesis. […] The entire process is performed in a microtiter filter plate for high-throughput scale-up. Alternatively, a normal 96-well plate can also be used in which case centrifugation is used to wash the plate instead of filtration.\n(§3) In an example embodiment, bacterial samples are first diluted and incubated in acclimatization media. After treatment with one or more antimicrobials, the ncAA is added and is taken up by living bacteria during protein biosynthesis in a process called labeling. […] The Click-Chemistry reaction between the alkyne group of the ncAA and the azide group of the fluorophore-tagged ligand requires the presence of copper in the reduced state-copper (I). In other implementations, the functional groups of the click chemistry reaction can be changed so that the ncAA has the azide group and the dye has the alkyne group. […] Other reducing agents may be used in the BLAST assay, for example, aldoses (sugars) including glyceraldehyde, glucose, and ribose to replace sodium ascorbate. Likewise, alternate chelators may be used (e.g., histidine in place of BTTAA). In some implementations, metal-free click chemistry reactions are performed without using copper.\n(§4) Using the BLAST system, tests can be performed on isolates or direct urine samples. Isolates may be from urine, blood, or other body fluids. Isolated bacteria may be either Gram-positive or Gram-negative. In an example implementation, living bacterial samples in acclimatization media (Buffer A) are distributed in a microtiter filter plate, wherein certain predetermined wells include antibiotics of interest at different concentrations. These antibiotics are arrayed with increasing concentrations in adjacent wells so that the bacterial response can be measured against each specific concentration. The response is measured quantitatively, and a value that corresponds to the ability of the bacteria to metabolize and grow is measured."}, "[2]": {"test_system": "S. aureus ATCC 29213", "test": "CytoSPAR BLAST antibiotic susceptibility test", "type": "cell-based", "conditions": "for S, I, R: susceptible, intermediate, resistant category; for MIC: Staphylococcus aureus", "text": "as §1, §2, §3, §4"}, "[3]": {"test_system": "S. aureus ATCC 29213", "conditions": "CLSI M100-Ed34E; cited from earlier work"}, "[4]": {"test_system": "E. coli LSI 770", "test": "CytoSPAR BLAST antibiotic susceptibility test", "type": "cell-based", "conditions": "for MIC: Escherichia coli", "text": "as §1, §2, §3, §4"}, "[5]": {"test_system": "K. pneumoniae LSI 4552", "test": "CytoSPAR BLAST antibiotic susceptibility test", "type": "cell-based", "text": "as §1, §2, §3, §4"}, "[6]": {"test_system": "K. pneumoniae LSI CT1045", "test": "CytoSPAR BLAST antibiotic susceptibility test", "type": "cell-based", "text": "as §1, §2, §3, §4"}, "[7]": {"test_system": "P. mirabilis LSI 4698", "test": "CytoSPAR BLAST antibiotic susceptibility test", "type": "cell-based", "text": "as §1, §2, §3, §4"}, "[8]": {"test_system": "P. mirabilis LSI 4933", "test": "CytoSPAR BLAST antibiotic susceptibility test", "type": "cell-based", "text": "as §1, §2, §3, §4"}, "[9]": {"test_system": "E. coli LSI 770", "test": "reference broth microdilution (rBMD)", "type": "cell-based", "conditions": "Escherichia coli, LSI770", "experimental": "(§5) Following optimization of the BLAST assay, two other tests were performed in which 12 antibiotics (covering different classes) and 8 bacterial strains (Gram-positive and Gram-negative) were assayed using the same method as described above. Different bacterial strains were tested against different antibiotics and for each pair tested, the BLAST MIC value was compared to the CLSI QC range where available, or to the reference broth microdilution (rBMD) MIC which was determined in parallel with the BLAST assay following the CLSI protocols (see references [9]).\n(§6) The inoculated urine cultures were incubated overnight at 35+2° C. Each urine culture was centrifuged, and the sediment used to prepare the BLAST inoculum of 5.0×10^5 CFU/mL to start the assay as described in the protocols section. […] The spiked urine samples were tested in parallel with isolates and the resultant BLAST MIC values were compared. In addition to the BLAST test, all the samples were also tested using the reference broth microdilution (rBMD) method and the MIC values were compared."}, "[10]": {"test_system": "S. aureus ATCC 29213", "test": "reference broth microdilution (rBMD)", "type": "cell-based", "experimental": "as §5, §6"}, "[11]": {"test_system": "K. pneumoniae LSI 4552", "test": "reference broth microdilution (rBMD)", "type": "cell-based", "conditions": "Klebsiella pneumoniae, LSI4552", "experimental": "as §5"}, "[12]": {"test_system": "K. pneumoniae LSI CT1045", "test": "reference broth microdilution (rBMD)", "type": "cell-based", "conditions": "Klebsiella pneumoniae, LSICT1045", "experimental": "as §5"}, "[13]": {"test_system": "P. mirabilis LSI 4933", "test": "reference broth microdilution (rBMD)", "type": "cell-based", "conditions": "Proteus mirabilis, LSI4933", "experimental": "as §5"}, "[14]": {"test_system": "P. mirabilis LSI 4698", "test": "reference broth microdilution (rBMD)", "type": "cell-based", "conditions": "Proteus mirabilis, LSI4698"}, "[15]": {"conditions": "ATCC25922, Table 6, optimized BLAST, cutoff 0.8, read-out: MIC BLAST"}, "[16]": {"conditions": "susceptible, intermediate, resistant category"}, "[17]": {"conditions": "ATCC29213, Table 6, S. aureus ATCC 29213, optimized BLAST, cutoff 0.8, read-out: MIC BLAST"}}, "note": "Where two headings read alike, the source gives them in different places."}
{"smiles": "CC1(C)S[C@@H]2[C@H](NC(=O)[C@H](N)c3ccccc3)C(=O)N2[C@H]1C(=O)O", "note": "[Ampicillin, ampicillin]", "values": [{"measurement": "MIC", "setting": "[1]; [15]", "result": 4, "unit": "µg/mL"}, {"measurement": "S, I, R", "setting": "[1]", "result": "Susceptible"}, {"measurement": "S, I, R", "setting": "[2]; S. aureus ATCC 29213", "result": "Susceptible"}, {"measurement": "MIC CLSI QC Range", "setting": "[3]", "result": "0.5 to 2", "unit": "µg/mL"}]}
{"smiles": "Cc1nnc(SCC2=C(C(=O)O)N3C(=O)[C@@H](NC(=O)Cn4cnnn4)[C@H]3SC2)s1", "note": "[Cefazolin, cefazolin]", "values": [{"measurement": "BLAST MIC", "setting": "[1]; 5×10^6 CFUs/mL, cutoff 0.8, FIGS. 16-18", "result": 2.0, "unit": "µg/mL"}, {"measurement": "MIC", "setting": "[1]; ATCC25922, Table 8, isolates, 5 × 10^5 CFU/mL, read-out: MIC BLAST Isolates", "result": 4.44, "unit": "µg/mL"}, {"measurement": "MIC", "setting": "[1]; ATCC25922, Table 8, spiked urine sample, 5 × 10^5 CFU/mL, read-out: MIC BLAST Spiked Urine", "result": 1.11, "unit": "µg/mL"}, {"measurement": "S, I, R", "setting": "[1]", "result": "Susceptible"}, {"measurement": "S, I, R", "setting": "[4]; E. coli LSI 770, susceptible, intermediate, resistant category", "result": "Resistant"}, {"measurement": "MIC", "setting": "[4]; LSI770, read-out: MIC BLAST Isolates", "result": "> 142", "unit": "µg/mL"}, {"measurement": "MIC", "setting": "[4]; LSI770, read-out: MIC BLAST Spiked Urine", "result": "> 142", "unit": "µg/mL"}, {"measurement": "MIC", "setting": "[4]; LSI770, Table 7, E. coli LSI 770, read-out: MIC BLAST", "result": "> 142", "unit": "µg/mL"}, {"measurement": "MIC", "setting": "[5]; Klebsiella pneumoniae, LSI4552, Table 7", "result": 2, "unit": "µg/mL"}, {"measurement": "S, I, R", "setting": "[5]; [16]", "result": "Susceptible"}, {"measurement": "MIC", "setting": "[6]; Klebsiella pneumoniae, LSICT1045, Table 7", "result": "> 142", "unit": "µg/mL"}, {"measurement": "S, I, R", "setting": "[6]; [16]", "result": "Resistant"}, {"measurement": "MIC", "setting": "[7]; Proteus mirabilis, LSI4698, Table 7", "result": 4.4, "unit": "µg/mL"}, {"measurement": "S, I, R", "setting": "[7]; [16]", "result": "Susceptible"}, {"measurement": "MIC", "setting": "[8]; Proteus mirabilis, LSI4933, Table 7", "result": 4.4, "unit": "µg/mL"}, {"measurement": "S, I, R", "setting": "[8]; [16]", "result": "Susceptible"}, {"measurement": "BLAST MIC", "setting": "[2]; S. aureus ATCC 29213, FIG. 19", "result": "< 0.125", "unit": "µg/mL"}, {"measurement": "S, I, R", "setting": "[2]; S. aureus ATCC 29213", "result": "Susceptible"}, {"measurement": "MIC", "setting": "[2]; ATCC29213, S. aureus ATCC 29213, 5×10^6 CFUs/mL, cutoff 0.8, FIGS. 19-21, read-out: BLAST MIC", "result": "< 0.125", "unit": "µg/mL"}, {"measurement": "MIC", "setting": "[2]; ATCC29213, Table 7, S. aureus ATCC 29213, read-out: MIC BLAST", "result": 0.14, "unit": "µg/mL"}, {"measurement": "MIC", "setting": "[2]; ATCC29213, Table 8, S. aureus ATCC 29213, isolates, 5 × 10^5 CFU/mL, read-out: MIC BLAST Isolates", "result": 0.14, "unit": "µg/mL"}, {"measurement": "MIC", "setting": "[2]; ATCC29213, Table 8, S. aureus ATCC 29213, spiked urine sample, 5 × 10^5 CFU/mL, read-out: MIC BLAST Spiked Urine", "result": 0.28, "unit": "µg/mL"}, {"measurement": "MIC", "setting": "[2]; ATCC29213, read-out: MIC BLAST, Table 6, S. aureus ATCC 29213, optimized BLAST, cutoff 0.8", "result": 0.125, "unit": "µg/mL"}, {"measurement": "MIC", "setting": "[9]", "result": "> 256", "unit": "µg/mL"}, {"measurement": "MIC", "setting": "[10]; Staphylococcus aureus, ATCC29213", "result": 0.5, "unit": "µg/mL"}, {"measurement": "MIC rBMD", "setting": "[10]; Table 8, S. aureus ATCC 29213, geometric mean MIC rounded to nearest 2-fold dilution, n = 3", "result": 0.5, "unit": "µg/mL"}, {"measurement": "MIC", "setting": "[11]", "result": 8, "unit": "µg/mL"}, {"measurement": "MIC", "setting": "[12]", "result": "> 256", "unit": "µg/mL"}, {"measurement": "MIC", "setting": "[13]", "result": 8, "unit": "µg/mL"}, {"measurement": "MIC", "setting": "[14]", "result": 16, "unit": "µg/mL"}]}
{"smiles": "CO[C@@]1(NC(=O)Cc2cccs2)C(=O)N2C(C(=O)O)=C(COC(N)=O)CS[C@@H]21", "note": "[Cefoxitin, cefoxitin]", "values": [{"measurement": "MIC", "setting": "[1]; [15]", "result": 4, "unit": "µg/mL"}, {"measurement": "S, I, R", "setting": "[1]", "result": "Susceptible"}, {"measurement": "S, I, R", "setting": "[2]; S. aureus ATCC 29213", "result": "Susceptible"}, {"measurement": "MIC", "setting": "[2]; [17]", "result": 1, "unit": "µg/mL"}]}
{"smiles": "CO/N=C(\\C(=O)N[C@@H]1C(=O)N2C(C(=O)O)=C(CSc3nc(=O)c(=O)[nH]n3C)CS[C@H]12)c1csc(N)n1", "note": "[Ceftriaxone, ceftriaxone]", "values": [{"measurement": "S, I, R", "setting": "[1]", "result": "Susceptible"}, {"measurement": "S, I, R", "setting": "[2]; S. aureus ATCC 29213", "result": "Susceptible"}, {"measurement": "MIC", "setting": "[2]; [17]", "result": 1, "unit": "µg/mL"}]}
